Source: patent US4061626A, “Somatostatin analogs and intermediates thereto” (Eli Lilly and Company, priority 1976, dated 1977)
Where a SMILES comes first, the peptide text is derived from it.

Assays:
gastric HCl secretion = test: in vivo inhibition of gastric acid secretion in dogs with chronic gastric fistula and Heidenhain pouch; conditions: infused at 3 μg/kg-hr. for one hour, secretion induced by C-terminal tetrapeptide of gastrin 0.5 μg/kg-hr
Procedure: D-Lys^4 -somatostatin and D-Ala^2,D-Lys^4 -somatostatin also were tested in dogs for their in vivo inhibition of gastric acid secretion. In dogs with chronic gastric fistula and Heidenhain pouch, gastric HCl secretion was induced by infusion of the C-terminal tetrapeptide of gastrin at 0.5 μg/kg-hr. One dog served as control, receiving only the tetrapeptide. Another dog received the tetrapeptide and somatostatin while the test compound was administered to other dogs in place of somatostatin. After one hour of steady state secretion of HCl, somatostatin or the test compound was infused at 3 μg/kg-hr. for one hour. Collection of gastric acid samples was continued for an additional 1.5 hours at 15 minute intervals.

pancreatic secretion = test: inhibition of secretin-induced pancreatic secretion in dogs with pancreatic and total gastric fistula; assay type: in vivo; conditions: 3 μg/kg-hr for one hour, secretin 0.5 unit/kg-hr.
Procedure: D-Ala^2,D-Lys^4 -somatostatin was also shown to inhibit pancreatic secretion. In three dogs having both pancreatic and total gastric fistula, secretion from the pancreas was induced by infusion of secretin at 0.5 unit/kg-hr. and gastric HCl by infusion of tetragastrin at 0.5 μg/kg-hr. After a steady response was established, administration of the test compound was begun. One of the dogs was retained as control, and, of the remaining two dogs, one received somatostatin and the other D-Ala^2,D-Lys^4 -somatostatin, each for one hour at 3 μg/kg-hr.Peak inhibitory effects expressed as percent changes over control are as follows: […]

growth hormone secretion = test: release of growth hormone in sodium pentobarbital-stimulated rats; assay type: in vivo, Spraque-Dawley rats
Procedure: D-Lys^4 -somatostatin and D-Ala^2,D-Lys^4 -somatostatin also were tested for their activity with respect to the release of growth hormone. The procedure which was employed is carried out using mature male Spraque-Dawley rats (Laboratory Supply Company, Indianapolis, Indiana). The test is a modification of the method of P. Brazeau, W. Vale, and R. Guilleman, Endocrinology, 94 184 (1974). In this assay, two sets, one comprising five groups of eight rats each and the other comprising three groups of eight rats each were employed. First, sodium pentobarbital was administered to all of the rats of a particular set to stimulate growth hormone secretion. In the set comprising five groups of eight rats, one group is the control group and received only saline. Two of the groups received somatostatin, one at 2 μg./rat, subcutaneously, and the other at 50 μg./rat, subcutaneously. The other two groups received D-Ala^2,D-Lys^4 -somatostatin, one at 2 μg./rat, subcutaneously and the other at 50 μg./rat, subcutaneously. The degree of inhibition of serum growth hormone concentration then was determined with respect to the control group, and the relative activities of D-Ala^2,D-Lys^4 -somatostatin and somatostatin itself were compared.
The other set of three groups of eight rats each was treated in the same manner as above, with the exception the D-Lys^4 -somatostatin was used in place of D-Ala^2,D-Lys^4 -somatostatin, and the test was carried out only at a 50 μg./rat dose level. The D-Lys^4 -somatostatin stimulated growth hormone secretion by about 8 percent over control, while somatostatin in this set inhibited growth hormone secretion by 70 percent over control.

[1] = tested on: glucagon and insulin secretion; test: in vivo inhibition of glucagon and insulin secretion upon stimulation with L-alanine; set-up: species or system mongrel dogs; conditions: dogs
Procedure: D-Ala^2,D-Lys^4 -somatostatin was tested for its in vivo activity in inhibiting glucagon and insulin secretion upon stimulation with L-alanine. Normal mongrel dogs of either sex were fasted overnight. Control blood samples were obtained, and then an intravenous infusion of saline, somatostatin, or D-Ala^2,D-Lys^4 -somatostatin was started. After 30 minutes, L-alanine additionally was administered intravenously for a period of 15 minutes. The infusion of saline, somatostatin, or D-Ala^2,D-Lys^4 -somatostatin was continued for 15 minutes after completion of the alanine infusion. The total dose of somatostatin or D-Ala^2,D-Lys^4 -somatostatin which was infused is 200-500 μg./dog (0.20-0.30 μg/kg./minute), and the total dose of L-alanine infused was 1 mmol/kg.

glucagon secretion = test: in vivo inhibition of glucagon secretion upon stimulation with insulin; set-up: species or system mongrel dogs; conditions: dogs; insulin 0.3 units/kg. i.v.; infusion 0.07-0.13 μg/kg/min. (D-Lys^4 at 0.150, D-Ala^2,D-Lys^4 at 0.114 μg/kg/min.)
Procedure: D-Lys^4 -somatostatin and D-Ala^2,D-Lys^4 -somatostatin also were evaluated for in vivo activity in inhibiting glucagon secretion upon stimulation with insulin. Normal mongrel dogs of either sex were fasted overnight. After control blood samples had been obtained, an intravenous infusion of saline, somatostatin, D-Lys^4 -somatostatin, or D-Ala^2,D-Lys^4 -somatostatin was commenced. After 15 minutes, insulin, 0.3 units/kg., was injected intravenously. The infusion of saline, somatostatin, or the test compound was continued for two hours, and blood samples were obtained at various intervals throughout the test. The total dose of the somatostatin or test compound ranged from 120-260 μg./dog (0.07-0.13 μg/kg/min.). Administration of insulin produced a reduction in the blood glucose concentration and an increase in serum glucagon concentration.

[2] = intravenous infusion 0.20-0.30 μg/kg./minute (D-Ala^2,D-Lys^4 -somatostatin at 0.253 μg/kg/min.), L-alanine 1 mmol/kg

| Compound | inhibition of gastric acid secretion relative to the control (gastric HCl secretion) [%] | Pancreatic Secretion HCO3^-, peak inhibitory effect as percent change over control (pancreatic secretion) [%] | Pancreatic Secretion Protein, peak inhibitory effect as percent change over control (pancreatic secretion) [%] | Pancreatic Secretion Volume, peak inhibitory effect as percent change over control (pancreatic secretion) [%] | stimulation of growth hormone secretion over control (growth hormone secretion; 2 μg./rat, subcutaneously, set of five groups) [%] | stimulation of growth hormone secretion over control (growth hormone secretion; 50 μg./rat, subcutaneously, set of five groups) [%] | effect on basal serum insulin concentration ([1]; intravenous infusion 0.20-0.30 μg/kg./minute (D-Ala^2,D-Lys^4 -somatostatin at 0.253 μg/kg/min.)) | effect on the rise in serum glucagon concentration during infusion of L-alanine [1, 2] | effect on the rise in serum insulin concentration during infusion of L-alanine [1, 2] | effect on basal secretion of glucagon ([1]; intravenous infusion at 0.253 μg/kg/min.) | effect on the increase in serum glucagon concentration produced by insulin administration (glucagon secretion) | stimulation of growth hormone secretion over control (growth hormone secretion; 50 μg./rat, set of three groups) |
| --- | --- | --- | --- | --- | --- | --- | --- | --- | --- | --- | --- | --- |
| C[C@H](N)C(=O)N[C@H](C)C(=O)N[C@H]1CSSC[C@@H](C(=O)O)NC(=O)[C@H](CO)NC(=O)[C@H]([C@@H](C)O)NC(=O)[C@H](Cc2ccccc2)NC(=O)[C@H]([C@@H](C)O)NC(=O)[C@H](CCCCN)NC(=O)[C@H](Cc2c[nH]c3ccccc23)NC(=O)[C@H](Cc2ccccc2)NC(=O)[C@H](Cc2ccccc2)NC(=O)[C@H](CC(N)=O)NC(=O)[C@@H](CCCCN)NC1=O [D-Ala^2,D-Lys^4 -somatostatin, D-Ala^2, D-Lys^4 -somatostatin] (HELM PEPTIDE1{A.[dA].C.[dK].N.F.F.W.K.T.F.T.S.C}$PEPTIDE1,PEPTIDE1,3:R3-14:R3$$$V2.0) | 50.9 | -68 | -55.4 | -61 | 114 | ~200 | slight decrease | partial inhibition | partial inhibition | slight decrease | neither inhibited |  |
| C[C@H](N)C(=O)NCC(=O)N[C@H]1CSSC[C@@H](C(=O)O)NC(=O)[C@H](CO)NC(=O)[C@H]([C@@H](C)O)NC(=O)[C@H](Cc2ccccc2)NC(=O)[C@H]([C@@H](C)O)NC(=O)[C@H](CCCCN)NC(=O)[C@H](Cc2c[nH]c3ccccc23)NC(=O)[C@H](Cc2ccccc2)NC(=O)[C@H](Cc2ccccc2)NC(=O)[C@H](CC(N)=O)NC(=O)[C@@H](CCCCN)NC1=O [D-Lys^4 -somatostatin] | 87.3 |  |  |  |  |  |  |  |  |  | neither inhibited | about 8% |
